Source: PubChem BioAssay AID602462 (NMMLSC, 2012)
Calls of active or inactive are those of the source.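 The calls were made as follows: active = compounds passing through the artificial lipid membrane faster than 100 units at the neutral pH 7.4; inactive = the rest.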

Test system: PAMPA double-sink, GIT-0 lipid, UV read-out
Experiment: passive membrane permeability of hits, PAMPA, late-stage follow-up, ADME assay for GPR30 and estrogen receptor ligands, biophysical, double-sink PAMPA, aqueous buffer, pH 5.0/6.2/7.4 (AID 602462)
Conditions: stronger effect = higher value; for permeability Pe pH 5.0: measured here: permeability at pH 5.0; for permeability Pe pH 6.2: measured here: permeability at pH 6.2

permeability Pe pH 7.4	permeability Pe pH 5.0	permeability Pe pH 6.2	Compound
117 10^-6 cm/s	44 10^-6 cm/s	120 10^-6 cm/s	COc1cc([N+](=O)[O-])cc2c1NC(C1CC=CCC1)C1CC=CC21 (stereo unspecified)
0 10^-6 cm/s (inactive)	0 10^-6 cm/s	0 10^-6 cm/s	CC(=O)c1ccc2c(c1)[C@@H]1C=CC[C@@H]1[C@H](c1cc3c(cc1Br)OCO3)N2
